# Source: paper doi:10.1101/2024.05.30.596569v1 (bioRxiv, 2024)
# What was measured:
# E.c K0416 = experiment: microbe, parasite or virus in culture; details: Escherichia coli, K0416, read-out: Minimum inhibitory concentration, E.c K0416
# E.c ATCC25922 ΔTolC = details: Table S3, triplicate
# [1] = pH 7.4
# A. baumannii ATCC 19606 = details: Mueller Hinton II broth, 5 × 10^5 cells mL^−1, 18h, turbidity 600 nm, triplicate
# P. aeruginosa strains = details: cited from earlier work
compound,measurement,setting,value
"O=C(O)c1cn(C2CC2)c2cc(N3CCNCC3)c(F)cc2c1=O [CIP, ciprofloxacin]",MIC,E.c K0416,> 0.5 µg/mL
"CC(C)(O/N=C(\C(=O)N[C@@H]1C(=O)N2C(C(=O)[O-])=C(C[n+]3ccccc3)CS[C@H]12)c1csc(N)n1)C(=O)O [CZA, ceftazidime]",MIC,E.c K0416,64 µg/mL
"CNC(C)C1CCC(N)C(OC2C(N)CC(N)C(OC3OCC(C)(O)C(NC)C3O)C2O)O1 (stereo not drawn) [GEN, gentamicin]","Minimum inhibitory concentration, E.c ATCC25922 ΔTolC",E.c ATCC25922 ΔTolC,0.5 µg/mL
same,MIC,E.c K0416,4 µg/mL
CC(C)NCC(O)COc1cccc2ccccc12 (stereo not drawn) [Propranolol],A-B permeability (Caco-2),Caco-2 cells,38.0 10^-6 cm s^-1
same,B-A permeability (Caco-2),Caco-2 cells,17.2 10^-6 cm s^-1
CO[C@H]1/C=C/O[C@@]2(C)Oc3c(C)c(O)c4c(O)c(c(/C=N/N5CCN(C)CC5)c(O)c4c3C2=O)NC(=O)/C(C)=C\C=C\[C@H](C)[C@H](O)[C@@H](C)[C@@H](O)[C@@H](C)[C@H](OC(C)=O)[C@@H]1C [Rifampicin],"Distribution coefficient (log D), logD7.4",[1],1.12
C[C@@H](O)[C@H](NC(=O)[C@H]1NC(=O)[C@H]([C@@H](C)O)NC(=O)[C@H]2NC(=O)[C@H](CC(N)=O)NC(=O)[C@@H](N)Cc3c[nH]c4c(cccc34)OC2c2c[nH]c3cc(ccc23)C1CCCN)C(=O)N[C@@H](Cc1ccccc1)C(=O)O (stereo partly drawn) [WNWTKTF],"Minimum inhibitory concentration, Ab ATCC 19606",A. baumannii ATCC 19606,no activity against A. baumannii
murepavadin,MIC90 against P. aeruginosa strains,P. aeruginosa strains,0.12 µg/mL
